These results are taken from article PMC9856672, “SGC-CAMKK2-1: A Chemical Probe for CAMKK2” (Cells, 2023).

For one assay, the target named is T1, FGFR2 (Homo sapiens, UniProt P21802).
T1 construct: purchased Eurofins DiscoverX KINOMEscan
Kind of assay: KINOMEscan 1 μM, FGFR2. The assay is classed as binding. The conditions noted are these: 1000 nM; Entrez FGFR2; read-out: Percent Control. The source says:
(§1) Supplement cells-12-00287-s001.zip/File S2. KinomeScan data for the CAMKK2 probe and negative control.xlsx, sheet "SGC-CAMKK2-1" | column: Percent Control

The target in a further assay is T2, LATS2 (Homo sapiens, UniProt Q9NRM7).
T2 construct: purchased Eurofins DiscoverX KINOMEscan
The assay can be described thus: KINOMEscan 1 μM, LATS2. Format: binding. The conditions noted are these: 1000 nM; Entrez LATS2; read-out: Percent Control.
Text: as §1

For the next assay, the target named is T3, SRPK3 (Homo sapiens, UniProt Q9UPE1).
T3 construct: purchased Eurofins DiscoverX KINOMEscan
Kind of assay: DiscoverX KINOMEscan binding assay at 1 μM, SRPK3. The conditions noted are these: Compound Concentration 1000 nM, read-out: Percent Control.
Text: as §1

Assay [1] concerns the target T4, CLK3 (Homo sapiens, UniProt P49761).
T4 construct: purchased Eurofins DiscoverX KINOMEscan
The assay can be described thus: KINOMEscan 1 μM, CLK3. The conditions noted are these: 1000 nM; Entrez CLK3; read-out: Percent Control. Format: binding.
Text: as §1

Another assay concerns the target T5, YANK3 (Homo sapiens, UniProt Q86UX6).
T5 construct: purchased Eurofins DiscoverX KINOMEscan
The assay can be described thus: DiscoverX KINOMEscan binding assay at 1 μM, YANK3. The conditions noted are these: YANK3 (STK32C); Compound Concentration 1000 nM; read-out: Percent Control.
Text: as §1

Assay [2] deals with T6, ABL1(F317L)-phosphorylated (Homo sapiens, UniProt P00519, F317L).
T6 construct: purchased Eurofins DiscoverX KINOMEscan
The assay can be described thus: KINOMEscan 1 μM, ABL1(F317L)-phosphorylated. The conditions noted are these: 1000 nM; Entrez ABL1; read-out: Percent Control. The assay is classed as binding.
Text: as §1

A further assay concerns the target T7, ROCK2 (Homo sapiens, UniProt O75116).
T7 construct: purchased Eurofins DiscoverX KINOMEscan
Kind of assay: DiscoverX KINOMEscan binding assay at 1 μM, ROCK2. The conditions noted are these: Compound Concentration 1000 nM, read-out: Percent Control.
Text: as §1

The target in the next assay is T8, RIOK2 (Homo sapiens, UniProt Q9BVS4).
T8 construct: purchased Eurofins DiscoverX KINOMEscan
The assay can be described thus: DiscoverX KINOMEscan binding assay at 1 μM, RIOK2. The conditions noted are these: Compound Concentration 1000 nM, read-out: Percent Control.
Text: as §1

The target of the next assay is T9, ULK2 (Homo sapiens, UniProt Q8IYT8).
T9 construct: purchased Eurofins DiscoverX KINOMEscan
Kind of assay: DiscoverX KINOMEscan binding assay at 1 μM, ULK2. The conditions noted are these: Compound Concentration 1000 nM, read-out: Percent Control.
Text: as §1

For another assay, the target named is T10, DMPK (Homo sapiens, UniProt Q09013).
T10 construct: purchased Eurofins DiscoverX KINOMEscan
The assay can be described thus: KINOMEscan 1 μM, DMPK. The assay is classed as binding. The conditions noted are these: 1000 nM; Entrez DMPK; read-out: Percent Control.
Text: as §1

The next assay deals with T11, PIK3CA(H1047Y) (Homo sapiens, UniProt P42336, H1047Y).
T11 construct: purchased Eurofins DiscoverX KINOMEscan
The assay can be described thus: DiscoverX KINOMEscan binding assay at 1 μM, PIK3CA(H1047Y). The conditions noted are these: Compound Concentration 1000 nM, read-out: Percent Control.
Text: as §1

For the next assay, the target named is T12, PKMYT1 (Homo sapiens, UniProt Q99640).
T12 construct: purchased Eurofins DiscoverX KINOMEscan
Kind of assay: KINOMEscan 1 μM, PKMYT1. Format: binding. The conditions noted are these: 1000 nM; Entrez PKMYT1; read-out: Percent Control.
Text: as §1

The next assay deals with T13, IKK-epsilon (Homo sapiens, UniProt Q14164).
T13 construct: purchased Eurofins DiscoverX KINOMEscan
The assay can be described thus: KINOMEscan 1 μM, IKK-epsilon. Format: binding. The conditions noted are these: 1000 nM; Entrez IKBKE; read-out: Percent Control.
Text: as §1

The target of another assay is T14, ERN1 (Homo sapiens, UniProt O75460).
T14 construct: purchased Eurofins DiscoverX KINOMEscan
Kind of assay: KINOMEscan 1 μM, ERN1. The assay is classed as binding. The conditions noted are these: 1000 nM; Entrez ERN1; read-out: Percent Control.
Text: as §1

The next assay has as its target T15, MAP4K4 (Homo sapiens, UniProt O95819).
T15 construct: purchased Eurofins DiscoverX KINOMEscan
Kind of assay: KINOMEscan 1 μM, MAP4K4. Format: binding. The conditions noted are these: 1000 nM; Entrez MAP4K4; read-out: Percent Control.
Text: as §1

In the next assay the target is T16, CSNK1E (Homo sapiens, UniProt P49674).
T16 construct: purchased Eurofins DiscoverX KINOMEscan
The assay can be described thus: KINOMEscan 1 μM, CSNK1E. The assay is classed as binding. The conditions noted are these: 1000 nM; Entrez CSNK1E; read-out: Percent Control.
Text: as §1

A further assay concerns the target T17, CDK4-cyclinD1 (Homo sapiens, UniProt P11802).
T17 construct: purchased Eurofins DiscoverX KINOMEscan
Kind of assay: KINOMEscan 1 μM, CDK4-cyclinD1. The conditions noted are these: 1000 nM; Entrez CDK4; read-out: Percent Control. The assay is classed as binding.
Text: as §1

For the next assay, the target named is T18, FGR (Homo sapiens, UniProt P09769).
T18 construct: purchased Eurofins DiscoverX KINOMEscan
The assay can be described thus: KINOMEscan 1 μM, FGR. The conditions noted are these: 1000 nM; Entrez FGR; read-out: Percent Control. Format: binding.
Text: as §1

Another assay has as its target T19, BRAF (Homo sapiens, UniProt P15056).
T19 construct: purchased Eurofins DiscoverX KINOMEscan
The assay can be described thus: KINOMEscan 1 μM, BRAF. The assay is classed as binding. The conditions noted are these: 1000 nM; Entrez BRAF; read-out: Percent Control.
Text: as §1

For assay [3], the target named is T20, JAK1(JH1domain-catalytic) (Homo sapiens, UniProt P23458).
T20 construct: JAK1(JH1domain-catalytic); purchased Eurofins DiscoverX KINOMEscan
Kind of assay: KINOMEscan at 1 μM, JAK1(JH1domain-catalytic). The conditions noted are these: 1000 nM, read-out: Percent Control. The assay is classed as binding. From the text:
(§2) Supplement cells-12-00287-s001.zip/File S2. KinomeScan data for the CAMKK2 probe and negative control.xlsx, sheet "SGC-CAMKK2-1N" | column: Percent Control

The target of a further assay is T21, WNK4 (Homo sapiens, UniProt Q96J92).
T21 construct: purchased Eurofins DiscoverX KINOMEscan
Kind of assay: KINOMEscan at 1 μM, WNK4. The conditions noted are these: 1000 nM, read-out: Percent Control. Format: binding.
Text: as §2

The target of assay [4] is T4, CLK3. Kind of assay: KINOMEscan at 1 μM, CLK3. The assay is classed as binding. The conditions noted are these: 1000 nM, read-out: Percent Control.
Text: as §2

A further assay concerns the target T22, CDK5 (Homo sapiens, UniProt Q00535).
T22 construct: purchased Eurofins DiscoverX KINOMEscan
Kind of assay: KINOMEscan at 1 μM, CDK5. The assay is classed as binding. The conditions noted are these: 1000 nM, read-out: Percent Control.
Text: as §2

The next assay addresses T23, CASK (Homo sapiens, UniProt O14936).
T23 construct: purchased Eurofins DiscoverX KINOMEscan
The assay can be described thus: KINOMEscan at 1 μM, CASK. Format: binding. The conditions noted are these: 1000 nM, read-out: Percent Control.
Text: as §2

The next assay deals with T24, SRPK1 (Homo sapiens, UniProt Q96SB4).
T24 construct: purchased Eurofins DiscoverX KINOMEscan
The assay can be described thus: KINOMEscan at 1 μM, SRPK1. Format: binding. The conditions noted are these: 1000 nM, read-out: Percent Control.
Text: as §2

In the next assay the target is T25, GSK3B (Homo sapiens, UniProt P49841).
T25 construct: purchased Eurofins DiscoverX KINOMEscan
The assay can be described thus: KINOMEscan at 1 μM, GSK3B. Format: binding. The conditions noted are these: 1000 nM, read-out: Percent Control.
Text: as §2

For the next assay, the target named is T26, CAMK2D (Homo sapiens, UniProt Q13557).
T26 construct: purchased Eurofins DiscoverX KINOMEscan
Kind of assay: KINOMEscan at 1 μM, CAMK2D. The assay is classed as binding. The conditions noted are these: 1000 nM, read-out: Percent Control.
Text: as §2

The target of assay [5] is T27, ABL1(Y253F)-phosphorylated (Homo sapiens, UniProt P00519, Y253F).
T27 construct: purchased Eurofins DiscoverX KINOMEscan
The assay can be described thus: KINOMEscan at 1 μM, ABL1(Y253F)-phosphorylated. The assay is classed as binding. The conditions noted are these: 1000 nM, read-out: Percent Control.
Text: as §2

In the next assay the target is T28, HIPK1 (Homo sapiens, UniProt Q86Z02).
T28 construct: purchased Eurofins DiscoverX KINOMEscan
The assay can be described thus: KINOMEscan at 1 μM, HIPK1. The assay is classed as binding. The conditions noted are these: 1000 nM, read-out: Percent Control.
Text: as §2

The target of another assay is T29, SIK (Homo sapiens, UniProt P57059).
T29 construct: purchased Eurofins DiscoverX KINOMEscan
The assay can be described thus: KINOMEscan binding assay at 1 μM, SIK. The conditions noted are these: Compound Concentration 1000 nM; read-out: Percent Control.
Text: as §2

Another assay has as its target T30, PIM1 (Homo sapiens, UniProt P11309).
T30 construct: purchased Eurofins DiscoverX KINOMEscan
The assay can be described thus: KINOMEscan at 1 μM, PIM1. The assay is classed as binding. The conditions noted are these: 1000 nM, read-out: Percent Control.
Text: as §2

A further assay concerns the target T31, NEK3 (Homo sapiens, UniProt P51956).
T31 construct: purchased Eurofins DiscoverX KINOMEscan
The assay can be described thus: KINOMEscan at 1 μM, NEK3. The assay is classed as binding. The conditions noted are these: 1000 nM, read-out: Percent Control.
Text: as §2

Another assay addresses T32, NEK11 (Homo sapiens, UniProt Q8NG66).
T32 construct: purchased Eurofins DiscoverX KINOMEscan
The assay can be described thus: KINOMEscan at 1 μM, NEK11. Format: binding. The conditions noted are these: 1000 nM, read-out: Percent Control.
Text: as §2

In a further assay the target is T33, KIT(V559D,V654A) (Homo sapiens, UniProt P10721, V559D/V654A).
T33 construct: purchased Eurofins DiscoverX KINOMEscan
Kind of assay: KINOMEscan at 1 μM, KIT(V559D,V654A). Format: binding. The conditions noted are these: 1000 nM, read-out: Percent Control.
Text: as §2

T4 sequence (P49761 whole entry): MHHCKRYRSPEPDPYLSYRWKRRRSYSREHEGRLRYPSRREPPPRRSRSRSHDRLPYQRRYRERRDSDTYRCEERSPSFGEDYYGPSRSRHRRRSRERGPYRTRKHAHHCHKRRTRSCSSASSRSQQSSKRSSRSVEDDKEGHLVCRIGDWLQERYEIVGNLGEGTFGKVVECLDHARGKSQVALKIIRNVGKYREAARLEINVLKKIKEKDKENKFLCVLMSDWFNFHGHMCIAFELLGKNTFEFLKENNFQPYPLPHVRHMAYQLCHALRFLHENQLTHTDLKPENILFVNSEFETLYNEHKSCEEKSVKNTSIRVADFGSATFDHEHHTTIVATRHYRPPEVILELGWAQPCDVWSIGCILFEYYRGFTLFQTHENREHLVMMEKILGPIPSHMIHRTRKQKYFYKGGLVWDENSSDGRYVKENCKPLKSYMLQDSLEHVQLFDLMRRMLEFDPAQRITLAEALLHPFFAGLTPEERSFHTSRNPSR
T13 sequence (Q14164 whole entry): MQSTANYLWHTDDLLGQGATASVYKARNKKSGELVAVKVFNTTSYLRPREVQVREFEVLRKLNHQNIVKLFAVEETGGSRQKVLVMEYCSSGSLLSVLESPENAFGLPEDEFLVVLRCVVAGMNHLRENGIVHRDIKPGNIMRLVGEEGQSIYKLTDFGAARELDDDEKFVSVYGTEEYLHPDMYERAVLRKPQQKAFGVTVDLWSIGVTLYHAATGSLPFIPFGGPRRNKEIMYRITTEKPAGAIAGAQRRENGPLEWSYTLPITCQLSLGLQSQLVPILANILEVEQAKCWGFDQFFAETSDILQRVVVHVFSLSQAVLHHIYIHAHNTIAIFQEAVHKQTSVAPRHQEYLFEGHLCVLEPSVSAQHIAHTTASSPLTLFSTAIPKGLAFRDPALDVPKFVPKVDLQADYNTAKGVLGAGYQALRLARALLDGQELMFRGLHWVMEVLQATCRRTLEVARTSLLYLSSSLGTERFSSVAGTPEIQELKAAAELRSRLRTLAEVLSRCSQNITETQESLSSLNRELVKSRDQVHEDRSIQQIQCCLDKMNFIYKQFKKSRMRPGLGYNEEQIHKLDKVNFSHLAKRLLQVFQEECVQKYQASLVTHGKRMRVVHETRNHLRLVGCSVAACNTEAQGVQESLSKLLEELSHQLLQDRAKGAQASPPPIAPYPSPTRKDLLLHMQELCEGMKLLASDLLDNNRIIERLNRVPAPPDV
T25 sequence (P49841 whole entry): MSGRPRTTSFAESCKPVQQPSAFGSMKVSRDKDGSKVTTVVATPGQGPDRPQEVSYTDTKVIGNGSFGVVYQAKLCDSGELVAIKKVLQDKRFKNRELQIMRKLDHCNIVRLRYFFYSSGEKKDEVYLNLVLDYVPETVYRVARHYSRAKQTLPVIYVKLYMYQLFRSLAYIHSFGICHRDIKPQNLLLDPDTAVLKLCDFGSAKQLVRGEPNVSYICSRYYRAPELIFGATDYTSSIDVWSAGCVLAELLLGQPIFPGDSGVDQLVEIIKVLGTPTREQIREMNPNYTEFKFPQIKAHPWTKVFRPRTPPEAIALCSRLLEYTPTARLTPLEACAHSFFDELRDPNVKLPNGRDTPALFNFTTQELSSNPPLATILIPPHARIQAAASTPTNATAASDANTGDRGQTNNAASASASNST
T12 sequence (Q99640 whole entry): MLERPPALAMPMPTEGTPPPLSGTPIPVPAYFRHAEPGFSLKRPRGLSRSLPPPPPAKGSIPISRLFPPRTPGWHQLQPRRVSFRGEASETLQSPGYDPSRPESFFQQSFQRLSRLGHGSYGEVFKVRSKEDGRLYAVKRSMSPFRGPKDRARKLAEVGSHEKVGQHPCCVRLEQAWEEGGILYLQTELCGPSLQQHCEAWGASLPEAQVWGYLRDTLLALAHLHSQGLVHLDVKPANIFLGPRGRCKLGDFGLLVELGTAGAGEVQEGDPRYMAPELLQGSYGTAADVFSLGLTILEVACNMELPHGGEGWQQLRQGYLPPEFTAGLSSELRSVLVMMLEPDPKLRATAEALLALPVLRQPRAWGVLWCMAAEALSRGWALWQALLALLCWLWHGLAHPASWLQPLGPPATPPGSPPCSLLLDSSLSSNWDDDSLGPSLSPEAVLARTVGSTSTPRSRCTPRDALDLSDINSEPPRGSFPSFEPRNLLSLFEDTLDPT
T3 sequence (Q9UPE1 whole entry): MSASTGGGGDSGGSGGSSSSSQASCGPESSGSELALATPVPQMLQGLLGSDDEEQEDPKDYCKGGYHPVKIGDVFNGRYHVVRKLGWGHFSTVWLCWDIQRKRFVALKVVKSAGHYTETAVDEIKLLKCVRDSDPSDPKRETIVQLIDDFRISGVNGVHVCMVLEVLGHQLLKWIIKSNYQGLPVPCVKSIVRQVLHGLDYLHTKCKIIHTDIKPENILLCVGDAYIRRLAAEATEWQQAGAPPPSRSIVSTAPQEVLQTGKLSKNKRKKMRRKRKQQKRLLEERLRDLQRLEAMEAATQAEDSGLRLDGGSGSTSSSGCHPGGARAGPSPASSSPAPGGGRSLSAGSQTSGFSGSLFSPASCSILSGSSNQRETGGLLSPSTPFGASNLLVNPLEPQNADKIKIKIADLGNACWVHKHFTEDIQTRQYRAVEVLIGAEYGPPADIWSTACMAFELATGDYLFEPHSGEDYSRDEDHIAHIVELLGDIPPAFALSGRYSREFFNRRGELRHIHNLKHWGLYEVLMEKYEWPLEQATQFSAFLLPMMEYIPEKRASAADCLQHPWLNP
T2 sequence (Q9NRM7 whole entry): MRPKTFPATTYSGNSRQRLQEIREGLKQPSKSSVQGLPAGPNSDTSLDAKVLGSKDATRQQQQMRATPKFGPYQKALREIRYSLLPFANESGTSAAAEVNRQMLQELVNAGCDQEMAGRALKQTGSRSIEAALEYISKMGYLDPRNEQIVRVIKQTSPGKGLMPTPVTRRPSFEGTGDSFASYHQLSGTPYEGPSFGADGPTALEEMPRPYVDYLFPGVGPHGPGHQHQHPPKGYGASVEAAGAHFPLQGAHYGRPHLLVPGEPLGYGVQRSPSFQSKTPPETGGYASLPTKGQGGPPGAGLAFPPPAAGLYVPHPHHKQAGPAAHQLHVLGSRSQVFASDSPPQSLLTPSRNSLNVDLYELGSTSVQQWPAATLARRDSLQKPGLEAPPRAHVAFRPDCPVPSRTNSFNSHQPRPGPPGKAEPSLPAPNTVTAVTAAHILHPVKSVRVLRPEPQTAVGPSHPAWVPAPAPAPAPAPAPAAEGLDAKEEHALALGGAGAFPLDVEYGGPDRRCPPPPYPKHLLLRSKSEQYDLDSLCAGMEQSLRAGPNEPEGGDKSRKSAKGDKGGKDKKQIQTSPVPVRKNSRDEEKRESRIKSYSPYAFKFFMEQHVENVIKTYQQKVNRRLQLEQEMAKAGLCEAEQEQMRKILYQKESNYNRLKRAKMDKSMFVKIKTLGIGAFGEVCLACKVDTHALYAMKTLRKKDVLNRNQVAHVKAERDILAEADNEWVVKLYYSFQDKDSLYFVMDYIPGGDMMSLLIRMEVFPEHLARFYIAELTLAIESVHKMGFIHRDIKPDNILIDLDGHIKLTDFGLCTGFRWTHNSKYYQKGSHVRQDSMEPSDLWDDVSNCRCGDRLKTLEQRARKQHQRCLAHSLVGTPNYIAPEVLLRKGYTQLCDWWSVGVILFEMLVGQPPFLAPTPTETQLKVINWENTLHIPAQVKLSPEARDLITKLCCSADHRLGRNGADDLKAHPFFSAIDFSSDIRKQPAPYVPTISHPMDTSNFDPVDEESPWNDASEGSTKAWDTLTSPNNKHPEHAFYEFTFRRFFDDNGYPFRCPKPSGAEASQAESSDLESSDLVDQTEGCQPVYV
T29 sequence (P57059 whole entry): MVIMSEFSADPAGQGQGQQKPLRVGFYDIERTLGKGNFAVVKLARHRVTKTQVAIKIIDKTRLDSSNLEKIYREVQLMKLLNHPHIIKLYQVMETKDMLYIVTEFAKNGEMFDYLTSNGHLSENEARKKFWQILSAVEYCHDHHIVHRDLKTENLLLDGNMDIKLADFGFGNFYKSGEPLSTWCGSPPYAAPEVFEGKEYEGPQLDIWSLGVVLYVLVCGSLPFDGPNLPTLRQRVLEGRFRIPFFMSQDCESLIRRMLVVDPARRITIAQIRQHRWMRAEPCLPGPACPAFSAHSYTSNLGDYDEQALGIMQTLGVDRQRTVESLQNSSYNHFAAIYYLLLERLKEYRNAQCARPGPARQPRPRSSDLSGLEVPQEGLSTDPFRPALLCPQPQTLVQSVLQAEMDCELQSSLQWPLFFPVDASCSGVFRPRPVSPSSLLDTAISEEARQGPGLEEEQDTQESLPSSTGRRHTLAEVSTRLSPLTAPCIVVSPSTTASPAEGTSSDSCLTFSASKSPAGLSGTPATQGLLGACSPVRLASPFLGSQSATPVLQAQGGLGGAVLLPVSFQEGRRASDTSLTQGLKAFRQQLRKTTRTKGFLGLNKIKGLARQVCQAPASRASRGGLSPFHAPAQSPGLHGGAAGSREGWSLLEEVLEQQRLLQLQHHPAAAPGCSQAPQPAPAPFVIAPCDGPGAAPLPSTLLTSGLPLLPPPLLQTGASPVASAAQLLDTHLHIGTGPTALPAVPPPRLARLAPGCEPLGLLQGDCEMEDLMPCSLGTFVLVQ
T20 sequence (P23458 854-1154 limits assumed): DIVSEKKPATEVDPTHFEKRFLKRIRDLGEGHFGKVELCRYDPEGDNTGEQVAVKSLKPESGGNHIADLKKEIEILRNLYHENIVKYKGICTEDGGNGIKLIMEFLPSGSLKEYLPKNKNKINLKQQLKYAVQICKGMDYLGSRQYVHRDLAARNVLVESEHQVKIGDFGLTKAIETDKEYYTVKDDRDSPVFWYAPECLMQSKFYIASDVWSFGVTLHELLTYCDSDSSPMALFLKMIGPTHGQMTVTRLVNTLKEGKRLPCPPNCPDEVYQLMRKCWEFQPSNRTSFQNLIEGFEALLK

Consider `Cc1cccc(-c2cnc3occ(-c4ccc(C(=O)O)c(C5CCCC5)c4)c3c2)c1` [SGC-CAMKK2-1 (YL-36)], for which the remaining binding at 1 µM is 88% at FGFR2; 72% at LATS2; 100% on SRPK3; 100% at CLK3 [1]; 100% on YANK3; 100% in [2]. For the same compound, the remaining binding at 1 µM at ROCK2 came out at 100%; on RIOK2, 100%; at ULK2, 100%; on DMPK, 92%; on PIK3CA(H1047Y) it was 100%; on PKMYT1, 99%. Also, the remaining binding at 1 µM at IKK-epsilon turned out to be 100%; on ERN1, 100%; at MAP4K4, 85%; on CSNK1E it was 75%; on CDK4-cyclinD1 it was 100%; on FGR, 100%. In addition, the remaining binding at 1 µM on BRAF was determined as 100%.
`O=C(O)c1ccc(-c2coc3ncc(-c4ccccc4)cc23)cc1Cl` [SGC-CAMKK2-1N (UNC-YL-83)]: the remaining binding at 1 µM worked out at 82% in assay [3]; 93% on WNK4; 85% on CLK3 [4]; 100% on CDK5; 81% on CASK; 85% at SRPK1. Moreover, the remaining binding at 1 µM at GSK3B is 47%; on CAMK2D, 77%; in assay [5], 69%; on HIPK1 it was 44%; at SIK it was 100%; on PIM1, 75%. Further, the remaining binding at 1 µM came to 71% at NEK3, 62% on NEK11 and 92% on KIT(V559D,V654A).
